Experimental findings from the OligoGym collection are described below.

HELM strings list units from the 5' end as sugar, base in round brackets, then linkage (d deoxyribose, r ribose, m 2'-O-methyl, p phosphodiester). Strings are as the collection lists them; they lack the last nucleoside at the 3' end of the tested compound. [moe] = 2'-O-(2-methoxyethyl) (MOE); [sp] = phosphorothioate linkage; [m5C] = 5-methylcytosine

For the data set, the target named is SCN2A. Nature of the data set: mouse, dose not given. As to conditions: ASO.
As for “RNA1{[moe]([m5C])[sp].[moe](G)p.[moe](A)p.[moe](A)p.d(T)[sp].d(T)[sp].d([m5C])[sp].d(T)[sp].d(A)[sp].d(T)[sp].d(T)[sp].d(T)[sp].d(T)[sp].d(A)[sp].[moe](T)p.[moe](A)p.[moe](A)p.[moe](A)[sp].[moe](T)}$$$$ (last 3' nucleoside missing)”, the 3 h FOB score was 1 score 0-7.
As for “RNA1{[moe](G)[sp].[moe]([m5C])p.[moe]([m5C])p.[moe](T)p.[moe](A)p.d([m5C])[sp].d(T)[sp].d(T)[sp].d([m5C])[sp].d([m5C])[sp].d(T)[sp].d(T)[sp].d([m5C])[sp].d([m5C])[sp].d(A)[sp].[moe](A)p.[moe](G)p.[moe](G)[sp].[moe](A)}$$$$ (last 3' nucleoside missing)”, the figure is 0.33 score 0-7.
“RNA1{[moe]([m5C])[sp].[moe](T)p.[moe](G)p.[moe](T)p.[moe](T)p.d(T)[sp].d(G)[sp].d(G)[sp].d(G)[sp].d(T)[sp].d([m5C])[sp].d(T)[sp].d([m5C])[sp].d(T)[sp].d(T)[sp].[moe](A)p.[moe](G)p.[moe]([m5C])[sp].[moe](T)}$$$$ (last 3' nucleoside missing)”: the 3 h FOB score was 2.67 score 0-7.
As for “RNA1{[moe](T)[sp].[moe](G)p.[moe](A)p.[moe]([m5C])p.[moe]([m5C])p.[moe](A)p.d([m5C])[sp].d(G)[sp].d([m5C])[sp].d(T)[sp].d(T)[sp].d(A)[sp].d([m5C])[sp].d(A)[sp].d(T)[sp].d([m5C])[sp].[moe](A)p.[moe](A)[sp].[moe](A)}$$$$ (last 3' nucleoside missing)”, the figure is 1 score 0-7; as for “RNA1{[moe]([m5C])[sp].[moe](G)p.[moe](A)p.[moe](A)p.[moe](T)p.[moe](T)p.d([m5C])[sp].d(T)[sp].d(A)[sp].d(T)[sp].d(T)[sp].d(T)[sp].d(T)[sp].d(A)[sp].d(T)[sp].d(A)[sp].[moe](A)p.[moe](A)[sp].[moe](T)}$$$$ (last 3' nucleoside missing)”, 2.33 score 0-7; as for “RNA1{[moe](G)[sp].[moe]([m5C])p.[moe](A)p.[moe](T)p.[moe](G)p.d(T)[sp].d(A)[sp].d(A)[sp].d([m5C])[sp].d([m5C])[sp].d(T)[sp].d(T)[sp].d(T)[sp].d(A)[sp].d(T)[sp].[moe](A)p.[moe]([m5C])p.[moe](A)[sp].[moe](T)}$$$$ (last 3' nucleoside missing)”, 0 score 0-7.
For the substance “RNA1{[moe]([m5C])[sp].[moe](T)p.[moe]([m5C])p.[moe](T)p.d(T)[sp].d(T)[sp].d([m5C])[sp].d(T)[sp].d(T)[sp].d(A)[sp].d(T)[sp].d(T)[sp].d(T)[sp].d([m5C])[sp].[moe](T)p.[moe](G)p.[moe](T)p.[moe](T)[sp].[moe](T)}$$$$ (last 3' nucleoside missing)”, the 3 h FOB score was determined as 0 score 0-7.
Substance “RNA1{[moe](A)[sp].[moe](A)p.[moe](T)p.[moe]([m5C])p.[moe](A)p.[moe]([m5C])p.d(T)[sp].d(T)[sp].d(T)[sp].d([m5C])[sp].d(A)[sp].d(T)[sp].d([m5C])[sp].d([m5C])[sp].d(A)[sp].d([m5C])[sp].[moe](G)p.[moe](A)[sp].[moe]([m5C])}$$$$ (last 3' nucleoside missing)” displayed a 3 h FOB score of 0 score 0-7.
The same measure for “RNA1{[moe](T)[sp].[moe]([m5C])p.[moe](T)p.[moe](G)p.[moe]([m5C])p.d(A)[sp].d(T)[sp].d(G)[sp].d(T)[sp].d(A)[sp].d(A)[sp].d([m5C])[sp].d([m5C])[sp].d(T)[sp].d(T)[sp].[moe](T)p.[moe](A)p.[moe](T)[sp].[moe](A)}$$$$ (last 3' nucleoside missing)”: 0 score 0-7.
In the case of “RNA1{[moe]([m5C])[sp].[moe](A)p.[moe](T)p.[moe](A)p.[moe](T)p.d(T)[sp].d(T)[sp].d(T)[sp].d(T)[sp].d([m5C])[sp].d(T)[sp].d(A)[sp].d([m5C])[sp].d(A)[sp].d([m5C])[sp].[moe](T)p.[moe](G)p.[moe]([m5C])[sp].[moe](T)}$$$$ (last 3' nucleoside missing)”, the 3 h FOB score was 2 score 0-7.
As for “RNA1{[moe]([m5C])[sp].[moe]([m5C])p.[moe](A)p.[moe]([m5C])p.d(G)[sp].d(A)[sp].d([m5C])[sp].d(A)[sp].d(T)[sp].d(A)[sp].d(T)[sp].d(T)[sp].d(T)[sp].d(T)[sp].[moe](T)p.[moe]([m5C])p.[moe](T)p.[moe](A)[sp].[moe]([m5C])}$$$$ (last 3' nucleoside missing)”, the figure is 1 score 0-7; as for “RNA1{[moe](G)[sp].[moe](A)p.[moe](A)p.[moe](T)p.[moe](T)p.[moe]([m5C])p.d(T)[sp].d(A)[sp].d(T)[sp].d(T)[sp].d(T)[sp].d(T)[sp].d(A)[sp].d(T)[sp].d(A)[sp].d(A)[sp].[moe](A)p.[moe](T)[sp].[moe](G)}$$$$ (last 3' nucleoside missing)”, 1 score 0-7; as for “RNA1{[moe](A)[sp].[moe](T)p.[moe](G)p.[moe](T)p.[moe](A)p.[moe](A)p.d([m5C])[sp].d([m5C])[sp].d(T)[sp].d(T)[sp].d(T)[sp].d(A)[sp].d(T)[sp].d(A)[sp].d([m5C])[sp].d(A)[sp].[moe](T)p.[moe](T)[sp].[moe](T)}$$$$ (last 3' nucleoside missing)”, 0 score 0-7.
On to “RNA1{[moe]([m5C])[sp].[moe](T)p.[moe](G)p.[moe](G)p.[moe]([m5C])p.d(T)[sp].d(A)[sp].d(T)[sp].d(A)[sp].d([m5C])[sp].d(T)[sp].d([m5C])[sp].d(A)[sp].d(T)[sp].d(T)[sp].[moe](G)p.[moe]([m5C])p.[moe](T)[sp].[moe]([m5C])}$$$$ (last 3' nucleoside missing)”, for which the 3 h FOB score is 0.67 score 0-7.
As for “RNA1{[moe](A)[sp].[moe](T)p.[moe](G)p.[moe](T)p.d(A)[sp].d(A)[sp].d(T)[sp].d([m5C])[sp].d(A)[sp].d([m5C])[sp].d(T)[sp].d(T)[sp].d(T)[sp].d([m5C])[sp].[moe](A)p.[moe](T)p.[moe]([m5C])p.[moe]([m5C])[sp].[moe](A)}$$$$ (last 3' nucleoside missing)”, the figure is 0.33 score 0-7; as for “RNA1{[moe](G)[sp].[moe](A)p.[moe]([m5C])p.[moe]([m5C])p.[moe](G)p.[moe](T)p.d([m5C])[sp].d(T)[sp].d([m5C])[sp].d(T)[sp].d(T)[sp].d(T)[sp].d([m5C])[sp].d(T)[sp].d(T)[sp].d(A)[sp].[moe](T)p.[moe](T)[sp].[moe](T)}$$$$ (last 3' nucleoside missing)”, 0 score 0-7; as for “RNA1{[moe]([m5C])[sp].[moe](T)p.[moe](G)p.[moe]([m5C])[sp].d(A)[sp].d(T)[sp].d(G)[sp].d(T)[sp].d(A)[sp].d(A)[sp].d([m5C])[sp].d([m5C])[sp].[moe](T)p.[moe](T)p.[moe](T)p.[moe](A)[sp].[moe](T)}$$$$ (last 3' nucleoside missing)”, 1 score 0-7.
“RNA1{[moe](T)[sp].[moe]([m5C])p.[moe](T)p.[moe](G)p.[moe]([m5C])p.[moe](A)p.d(T)[sp].d(G)[sp].d(T)[sp].d(A)[sp].d(A)[sp].d([m5C])[sp].d([m5C])[sp].d(T)[sp].d(T)[sp].d(T)[sp].[moe](A)p.[moe](T)[sp].[moe](A)}$$$$ (last 3' nucleoside missing)” showed a 3 h FOB score of 0 score 0-7.
As for “RNA1{[moe]([m5C])[sp].[moe](A)p.[moe](T)p.[moe](G)p.[moe](T)p.[moe](A)p.d(A)[sp].d(T)[sp].d([m5C])[sp].d(A)[sp].d([m5C])[sp].d(T)[sp].d(T)[sp].d(T)[sp].d([m5C])[sp].d(A)[sp].[moe](T)p.[moe]([m5C])[sp].[moe]([m5C])}$$$$ (last 3' nucleoside missing)”, the figure is 0 score 0-7; as for “RNA1{[moe]([m5C])[sp].[moe](A)p.[moe](G)p.[moe]([m5C])p.d(A)[sp].d(T)[sp].d(G)[sp].d(T)[sp].d(T)[sp].d(T)[sp].d(A)[sp].d(T)[sp].d([m5C])[sp].d(T)[sp].[moe](T)p.[moe](A)p.[moe](G)p.[moe](T)[sp].[moe](T)}$$$$ (last 3' nucleoside missing)”, 0 score 0-7; as for “RNA1{[moe](A)[sp].[moe](T)p.[moe](T)p.[moe](T)p.d([m5C])[sp].d(T)[sp].d(A)[sp].d(T)[sp].d(A)[sp].d(A)[sp].d([m5C])[sp].d(T)[sp].d([m5C])[sp].d(A)[sp].[moe](G)p.[moe]([m5C])p.[moe](A)p.[moe](A)[sp].[moe]([m5C])}$$$$ (last 3' nucleoside missing)”, 0 score 0-7.
On to “RNA1{[moe]([m5C])[sp].[moe](A)p.[moe](T)p.[moe](T)p.d(T)[sp].d([m5C])[sp].d(T)[sp].d(A)[sp].d(T)[sp].d(A)[sp].d(A)[sp].d([m5C])[sp].d(T)[sp].d([m5C])[sp].[moe](A)p.[moe](G)p.[moe]([m5C])p.[moe](A)[sp].[moe](A)}$$$$ (last 3' nucleoside missing)”, for which the 3 h FOB score came out at 0 score 0-7.
In the case of “RNA1{[moe](A)[sp].[moe](A)p.[moe](T)p.[moe]([m5C])p.[moe](A)p.d([m5C])[sp].d(T)[sp].d(T)[sp].d(T)[sp].d([m5C])[sp].d(A)[sp].d(T)[sp].d([m5C])[sp].d([m5C])[sp].d(A)[sp].[moe]([m5C])p.[moe](G)p.[moe](A)[sp].[moe]([m5C])}$$$$ (last 3' nucleoside missing)”, the 3 h FOB score turned out to be 0 score 0-7.
The same measure for “RNA1{[moe](T)[sp].[moe]([m5C])p.[moe](T)p.[moe](G)p.[moe]([m5C])[sp].d(A)[sp].d(T)[sp].d(G)[sp].d(T)[sp].d(A)[sp].d(A)[sp].d([m5C])[sp].d([m5C])[sp].[moe](T)p.[moe](T)p.[moe](T)[sp].[moe](A)}$$$$ (last 3' nucleoside missing)”: 1 score 0-7; for “RNA1{[moe](T)[sp].[moe](T)p.[moe]([m5C])p.[moe](T)p.[moe](G)p.d([m5C])[sp].d(A)[sp].d(T)[sp].d(G)[sp].d(T)[sp].d(A)[sp].d(A)[sp].d([m5C])[sp].d([m5C])[sp].d(T)[sp].[moe](T)p.[moe](T)p.[moe](A)[sp].[moe](T)}$$$$ (last 3' nucleoside missing)”: 1 score 0-7.
